Experimental data published in patent US11110084B2, “Opioid formulations” (Camurus AB, priority 2012, dated 2021).

Conditions: disodium fluorescein 5 mg/g, 0.1 g in 2 ml PBS

Compound: O=C([O-])c1ccccc1-c1c2ccc(=O)cc-2oc2cc([O-])ccc12.[Na+].[Na+] [Fluo, disodium fluorescein]
- % release (37° C.) 72 h: about 0.4%
